Test results from patent publication US7872134B2, “2-{[2-(substituted amino)ethyl]sulfonyl}ethyl N,N-bis(2-chloroethyl)phosphorodiamidates” (Telik, Inc., priority 2007, dated 2011).

Tests used:
[1] = tested on: DLD-1 (colorectal adenocarcinoma); assay: Cytotoxicity/Growth Inhibition Assay (CellTiter-Glo); assay type: cell-based; conditions: Homo sapiens, 96 h, DLD-1 cells, hydrochloride salts, cultured 4 days
Experimental: The following examples illustrate the beneficial effect of the compounds of this invention against human cancer cell lines in vitro.
The human cancer cell line DLD-1 (colorectal adenocarcinoma) was obtained from the American Type Culture Collection, Manassas, Va., U.S.A. The CellTiter-Glo assay kit was obtained from Promega Corporation, Madison, Wis., U.S.A. All products were used in accordance with manufacturer's directions. All assays were conducted in triplicate wells, with dimethyl sulfoxide (DMSO) solvent control. The extent of cell growth was expressed as a percentage of the signal from the solvent control wells.
Log-phase cells were trypsinized, collected by centrifugation, and resuspended in a small volume of fresh medium, and the density of viable cells was determined following Trypan Blue staining. Cells were diluted in fresh media (3×10^3 cells/mL for DLD-1), and added at 150 μL/well to 96-well plates, and incubated for several hours to allow attachment in the case of adherent cells. […] After incubation for 10 minutes at room temperature, and the plate was read with a luminometer.

[2] = tested on: MIA PaCa-2 tumor; assay: MiaPaCa-2 Xenograft Assay, Intraperitoneal Administration; assay type: in vivo, athymic nu/nu mice; conditions: for tumor mass inhibition relative to vehicle: autopsy day 19 after transplantation
Experimental: Male athymic nu/nu mice, 6-8 weeks old (approximately 20 g), were implanted subcutaneously in the right fore flank with 20-30 mg pieces of MIA PaCa-2 tumor harvested from similar nu/nu mice that had previously been implanted with the MIA PaCa-2 tumor. […] A group of mice was treated with compound 1A as the hydrochloride salt dissolved in aqueous 5% dextrose, at 100 mg/Kg by intraperitoneal injection once/day for 5 consecutive days; with vehicle and cyclophosphamide (30 mg/Kg) also administered by intraperitoneal injection for the same time. Tumor mass was estimated from volume on days 10, 13, and 17; and measured at autopsy on day 19 after transplantation.

N[C@@H](CCC(=O)N[C@@H](CS(=O)(=O)CCOP(=O)(N(CCCl)CCCl)N(CCCl)CCCl)C(=O)N[C@@H](C(=O)O)c1ccccc1)C(=O)O [canfosfamide, reference compound]
IC50 [1]: 11 µM

CCN(CC)CCS(=O)(=O)CCOP(N)(=O)N(CCCl)CCCl (centres unmarked) [compound 1A, 2-{[2-(diethylamino)ethyl]sulfonyl}ethyl N,N-bis(2-chloroethyl)phosphorodiamidate]
IC50 [1]: 13 µM | tumor mass inhibition relative to vehicle ([2]; 100 mg/Kg intraperitoneal once/day for 5 consecutive days, hydrochloride salt): 83% | safety at the dose tested ([2]; nu/nu mice, 100 mg/Kg intraperitoneal once/day for 5 days): safe and non-toxic

O=P1(N(CCCl)CCCl)NCCCO1 (centres unmarked) [cyclophosphamide, reference compound]
tumor mass inhibition relative to vehicle ([2]; 30 mg/Kg intraperitoneal once/day for 5 consecutive days): 84%
